Common to all, as to format: in vivo
Experiment [1] has as its system Phakopsora pachyrhizi. Kind of experiment: Phakopsora pachyrhizi / soybean / preventative (soybean rust). The conditions noted are these: foliar, soybean leaf disks, inoculated one day after application, assessed 12-14 days after application, read-out: control of Phakopsora pachyrhizi (percent disease control compared to untreated). The method, then:
Phakopsora pachyrhizi/Soybean/Preventative (Soybean Rust) Soybean leaf disks are placed on water agar in multiwell plates (24-well format) and sprayed with the formulated test compound diluted in water. One day after application leaf discs are inoculated by spraying a spore suspension on the lower leaf surface. After an incubation period in a climate cabinet of 24-36 hours in darkness at 20° C. and 75% rh leaf disc are kept at 20° C. with 12 h light/day and 75% rh. The activity of a compound is assessed as percent disease control compared to untreated when an appropriate level of disease damage appears in untreated check leaf disks (12-14 days after application).

The subject of experiment [2] is Blumeria graminis f. sp. tritici (Erysiphe graminis f. sp. tritici). Nature of the experiment: Blumeria graminis f. sp. tritici / wheat / leaf disc preventative (powdery mildew on wheat). The conditions noted are these: foliar, wheat leaf segments cv. Kanzler, inoculated 1 day after application, assessed 6-8 days after application, read-out: control of Blumeria graminis f. sp. tritici (percent disease control compared to untreated). The method, then:
Blumeria graminis f. sp. tritici (Erysiphe graminis f. sp. tritici)/Wheat/Leaf Disc Preventative (Powdery Mildew on Wheat) Wheat leaf segments cv. Kanzler are placed on agar in a multiwell plate (24-well format) and sprayed with the formulated test compound diluted in water. The leaf disks are inoculated by shaking powdery mildew infected plants above the test plates 1 day after application. The inoculated leaf disks are incubated at 20° C. and 60% rh under a light regime of 24 h darkness followed by 12 h light/12 h darkness in a climate chamber and the activity of a compound is assessed as percent disease control compared to untreated when an appropriate level of disease damage appears on untreated check leaf segments (6-8 days after application).

Experiment [3] deals with Puccinia recondita f. sp. tritici. Kind of experiment: Puccinia recondita f. sp. tritici / wheat / leaf disc curative (brown rust). The settings on record: foliar, wheat leaf segments cv. Kanzler, compound applied 1 day after inoculation, assessed 6-8 days after application, read-out: control of Puccinia recondita f. sp. tritici (percent disease control compared to untreated). The method, then: Puccinia recondita f. Sp. Tritici/Wheat/Leaf Disc Curative (Brown Rust) Wheat leaf segments cv. Kanzler are placed on agar in multiwell plates (24-well format). The leaf segments are inoculated with a spore suspension of the fungus. Plates are stored in darkness at 19° C. and 75% rh. The formulated test compound diluted in water is applied 1 day after inoculation. The leaf segments are incubated at 19° C. and 75% rh under a light regime of 12 h light/12 h darkness in a climate cabinet and the activity of a compound is assessed as percent disease control compared to untreated when an appropriate level of disease damage appears in untreated check leaf segments (6-8 days after application).

Experiment [4] shares this test system. Nature of the experiment: Puccinia recondita f. sp. tritici / wheat / leaf disc preventative (brown rust). The settings on record: foliar, wheat leaf segments cv. Kanzler, inoculated 1 day after application, assessed 7-9 days after application, read-out: control of Puccinia recondita f. sp. tritici (percent disease control compared to untreated). The method, then: Puccinia recondita f. Sp. Tritici/Wheat/Leaf Disc Preventative (Brown Rust) Wheat leaf segments cv. Kanzler are placed on agar in multiwell plates (24-well format) and sprayed with the formulated test compound diluted in water. The leaf disks are inoculated with a spore suspension of the fungus 1 day after application. The inoculated leaf segments are incubated at 19° C. and 75% rh under a light regime of 12 h light/12 h darkness in a climate cabinet and the activity of a compound is assessed as percent disease control compared to untreated when an appropriate level of disease damage appears in untreated check leaf segments (7-9 days after application).

Turning to `CCOCC(O)(c1cc(C)c(/N=C/N(C)CC)cc1OC)C(F)(F)F` (stereo not drawn) [E.002, N′-[4-[1-(ethoxymethyl)-2,2,2-trifluoro-1-hydroxy-ethyl]-5-methoxy-2-methyl-phenyl]-N-ethyl-N-methyl-formamidine], the pest or weed control at 200 ppm in experiment [1], in experiment [2], in experiment [3] and in experiment [4] was at least 80% each time.

`CCN(C)/C=N/c1cc(OC)c(C(O)(CO[C@H]2CC[C@H](C)CC2)C(F)(F)F)cc1C` (stereo partly drawn) [E.004, N-ethyl-N′-[5-methoxy-2-methyl-4-[2,2,2-trifluoro-1-hydroxy-1-[(4-methylcyclohexoxy)methyl]ethyl]phenyl]-N-methyl-formamidine]: in experiment [1], the pest or weed control at 200 ppm is at least 80%.

In the case of `CCN(C)/C=N/c1cc(OC)c(C(O)(COC2CC(C)CC(C)C2)C(F)(F)F)cc1C` (stereo not drawn) [E.006, N′-[4-[1-[(3,5-dimethylcyclohexoxy)methyl]-2,2,2-trifluoro-1-hydroxy-ethyl]-5-methoxy-2-methyl-phenyl]-N-ethyl-N-methyl-formamidine], the pest or weed control at 200 ppm in experiment [1], in experiment [2], in experiment [3] and in experiment [4] was at least 80% each time.

With `CCN(C)/C=N/c1cc(OC)c(C(O)(COCC2CCC2)C(F)(F)F)cc1C` (stereo not drawn) [E.011, N′-[4-[1-(cyclobutylmethoxymethyl)-2,2,2-trifluoro-1-hydroxy-ethyl]-5-methoxy-2-methyl-phenyl]-N-ethyl-N-methyl-formamidine], the pest or weed control at 200 ppm in experiment [1], in experiment [2], in experiment [3] and in experiment [4] was at least 80% in each case.

Take `CCC(CC)OCC(O)(c1cc(C)c(/N=C/N(C)CC)cc1OC)C(F)(F)F` (stereo not drawn) [E.024, N-ethyl-N′-[4-[1-(1-ethylpropoxymethyl)-2,2,2-trifluoro-1-hydroxy-ethyl]-5-methoxy-2-methyl-phenyl]-N-methyl-formamidine]: in experiment [1], the pest or weed control at 200 ppm was at least 80%.

For the molecule `CCN(C)/C=N/c1cc(OC)c(C(O)(COCc2ccccc2C)C(F)(F)F)cc1C` (stereo not drawn) [E.029, N-ethyl-N′-[5-methoxy-2-methyl-4-[2,2,2-trifluoro-1-hydroxy-1-(o-tolylmethoxymethyl)ethyl]phenyl]-N-methyl-formamidine], the pest or weed control at 200 ppm in experiment [2], in experiment [3] and in experiment [4] was at least 80% in each case.

Consider `C=CCOCCOCC(O)(c1cc(C)c(/N=C/N(C)CC)cc1OC)C(F)(F)F` (stereo not drawn) [E.030, N′-[4-[1-(2-allyloxyethoxymethyl)-2,2,2-trifluoro-1-hydroxy-ethyl]-5-methoxy-2-methyl-phenyl]-N-ethyl-N-methyl-formamidine], for which the pest or weed control at 200 ppm in experiment [2], in experiment [3] and in experiment [4] was at least 80% throughout.

As to `CCN(C)/C=N/c1cc(OC)c(C(O)(COCC2CC2(F)F)C(F)(F)F)cc1C` (stereo not drawn) [E.031, N′-[4-[1-[(2,2-difluorocyclopropyl)methoxymethyl]-2,2,2-trifluoro-1-hydroxy-ethyl]-5-methoxy-2-methyl-phenyl]-N-ethyl-N-methyl-formamidine], the pest or weed control at 200 ppm in experiment [2], in experiment [3] and in experiment [4] was at least 80% each time.

On to `CCN(C)/C=N/c1cc(OC)c(C(O)(COC2CCCC2)C(F)(F)F)cc1C` (stereo not drawn) [E.032, N′-[4-[1-(cyclopentoxymethyl)-2,2,2-trifluoro-1-hydroxy-ethyl]-5-methoxy-2-methyl-phenyl]-N-ethyl-N-methyl-formamidine], for which, in experiment [1], the pest or weed control at 200 ppm was at least 80%.

Take `CCC1CCC(OCC(O)(c2cc(C)c(/N=C/N(C)CC)cc2OC)C(F)(F)F)CC1` (stereo not drawn) [E.033, N-ethyl-N′-[4-[1-[(4-ethylcyclohexoxy)methyl]-2,2,2-trifluoro-1-hydroxy-ethyl]-5-methoxy-2-methyl-phenyl]-N-methyl-formamidine]: the pest or weed control at 200 ppm in experiment [2], in experiment [3] and in experiment [4] was at least 80% throughout.

Consider `CCN(C)/C=N/c1cc(OC)c(C(O)(COCC2(CC)COC2)C(F)(F)F)cc1C` (stereo not drawn) [E.034, N-ethyl-N′-[4-[1-[(3-ethyloxetan-3-yl)methoxymethyl]-2,2,2-trifluoro-1-hydroxy-ethyl]-5-methoxy-2-methyl-phenyl]-N-methyl-formamidine], for which the pest or weed control at 200 ppm in experiment [2], in experiment [3] and in experiment [4] was at least 80% throughout.

As for `CCN(C)/C=N/c1cc(OC)c(C(O)(COCc2cccc(C)c2)C(F)(F)F)cc1C` (stereo not drawn) [E.035, N-ethyl-N′-[5-methoxy-2-methyl-4-[2,2,2-trifluoro-1-hydroxy-1-(m-tolylmethoxymethyl)ethyl]phenyl]-N-methyl-formamidine], the pest or weed control at 200 ppm in experiment [2], in experiment [3] and in experiment [4] was at least 80% throughout.

For `CCN(C)/C=N/c1cc(OC)c(C(O)(COC2CCC(C)(C)CC2)C(F)(F)F)cc1C` (stereo not drawn) [E.038, N′-[4-[1-[(4,4-dimethylcyclohexoxy)methyl]-2,2,2-trifluoro-1-hydroxy-ethyl]-5-methoxy-2-methyl-phenyl]-N-ethyl-N-methyl-formamidine], the pest or weed control at 200 ppm in experiment [2], in experiment [3] and in experiment [4] was at least 80% in each case.

Take `CCN(C)/C=N/c1cc(OC)c(C(O)(COCc2ccccc2)C(F)(F)F)cc1C` (stereo not drawn) [E.043, N′-[4-[1-(benzyloxymethyl)-2,2,2-trifluoro-1-hydroxy-ethyl]-5-methoxy-2-methyl-phenyl]-N-ethyl-N-methyl-formamidine]: the pest or weed control at 200 ppm in experiment [1], in experiment [2] and in experiment [4] was at least 80% in each case.

For `CCN(C)/C=N/c1cc(OC)c(C(O)(COCc2ccc(F)cc2)C(F)(F)F)cc1C` (stereo not drawn) [E.044, N-ethyl-N′-[5-methoxy-2-methyl-4-[2,2,2-trifluoro-1-[(4-fluorophenyl)methoxymethyl]-1-hydroxy-ethyl]phenyl]-N-methyl-formamidine], the pest or weed control at 200 ppm in experiment [1], in experiment [2] and in experiment [4] was at least 80% in each case.

Turning to `CCO/N=C(/CC(O)(c1cc(C)c(/N=C/N(C)CC)cc1OC)C(F)(F)F)c1ccccc1` (stereo not drawn) [E.058, N′-[4-[(3Z)-3-ethoxyimino-1-hydroxy-3-phenyl-1-(trifluoromethyl)propyl]-5-methoxy-2-methyl-phenyl]-N-ethyl-N-methyl-formamidine], the pest or weed control at 200 ppm in experiment [2], in experiment [3] and in experiment [4] was at least 80% throughout.

For the molecule `CCN(C)/C=N/c1cc(OC)c(C(O)(CS(=O)(=O)C(C)C)C(F)(F)F)cc1C` (stereo not drawn) [E.063, N-ethyl-N′-[5-methoxy-2-methyl-4-[2,2,2-trifluoro-1-hydroxy-1-(isopropylsulfonylmethyl)ethyl]phenyl]-N-methyl-formamidine], the pest or weed control at 200 ppm in experiment [2], in experiment [3] and in experiment [4] was at least 80% each time.

Turning to `CCN(C)/C=N/c1cc(OC)c(C(O)(CS(=O)(=O)CC)C(F)(F)F)cc1C` (stereo not drawn) [E.067, N-ethyl-N′-[4-[1-(ethylsulfonylmethyl)-2,2,2-trifluoro-1-hydroxy-ethyl]-5-methoxy-2-methyl-phenyl]-N-methyl-formamidine], the pest or weed control at 200 ppm in experiment [2], in experiment [3] and in experiment [4] was at least 80% in each case.

As to `CCN(C)/C=N/c1cc(OC)c(C(O)(CSc2ccccc2)C(F)(F)F)cc1C` (stereo not drawn) [E.072, N-ethyl-N′-[5-methoxy-2-methyl-4-[2,2,2-trifluoro-1-hydroxy-1-(phenylsulfanylmethyl)ethyl]phenyl]-N-methyl-formamidine], the pest or weed control at 200 ppm in experiment [1], in experiment [2] and in experiment [4] was at least 80% in each case.
